Ten molecules from ChEMBL document CHEMBL1201862, “PubChem BioAssay data set” (2004) can be followed below.

Some test systems named below: SNB-19; HOP-62; OVCAR-4; SF-268; NCI/ADR-RES; SK-MEL-5; IGROV-1; 786-0; NCI-H522; NCI-H226; K562; HCT-116; RPMI-8226; SF-539; BT-549; NCI-H23; MDA-N; Hs-578T; OVCAR-8; CCRF-CEM.
Experiment in all cases: NCI anticancer screen, dose series, 48 h

SMILES strings stand for the structures.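 These data come from cells grown in 96-well plates and exposed to compound for 48 hours at five concentrations. GI50 is the concentration that inhibits growth by half.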 Activity calls are given as the source filed them. Cut-off read from the data, not from the text of the source: active = GI50 up to about 1.1 µM and inactive = higher. Non-standard residues stand in square brackets, D forms with d. Residues, ends and D or L forms follow the SMILES beside them. *: point of attachment. Bn2Val = CC(C)[C@@H](C(=O)*)N(Cc1ccccc1)Cc1ccccc1; NMeV = CN[C@H](C(=O)O)C(C)C; X32 = COc1ccc(CN*)c(OC)c1; dNMeA = CN[C@H](C)C(=O)O

As for `Cc1nc(O)c2c3c(sc2n1)CCCC3`, the GI50 with SNB-19, with HOP-62, with OVCAR-4, with SF-268, in the assay with NCI/ADR-RES and with SK-MEL-5 was > 100 µM (inactive) throughout. For the same molecule, the GI50 in the assay with IGROV-1 was > 100 µM (inactive); with 786-0, 35.9 µM (inactive); with NCI-H522, > 100 µM (inactive); in the assay on NCI-H226, > 100 µM (inactive); with K562, 96.6 µM (inactive); in the assay on HCT-116, 36.7 µM (inactive). For the same molecule, the GI50 with RPMI-8226 was 84.9 µM (inactive); in the assay on SF-539, 56.8 µM (inactive); in the assay on BT-549, > 100 µM (inactive); in the assay with NCI-H23, > 100 µM (inactive); in the assay on MDA-N, 87.7 µM (inactive); in the assay on Hs-578T it was > 100 µM (inactive). Further, the GI50 in the assay with OVCAR-8 is > 100 µM (inactive).

For the molecule `Cc1ccnc2c1ccc1nc3ccccc3n12`, the GI50 with HOP-62 is 89.7 µM (inactive); in the assay with OVCAR-4 it was 37.8 µM (inactive); in the assay with SF-268, 25.1 µM (inactive); in the assay with NCI/ADR-RES it was 37.8 µM (inactive); with SK-MEL-5, 17.7 µM (inactive); in the assay with IGROV-1 it was 25.5 µM (inactive). Moreover, the GI50 with 786-0 was 52.6 µM (inactive); in the assay on NCI-H522, 17.9 µM (inactive); with NCI-H226 it was 18.4 µM (inactive); in the assay on CCRF-CEM it was > 100 µM (inactive); in the assay with K562, > 100 µM (inactive); with HCT-116, 28.1 µM (inactive). The GI50 is > 100 µM (inactive) in the assay on RPMI-8226; 58.9 µM (inactive) in the assay with SF-539; 63.5 µM (inactive) in the assay with BT-549; > 100 µM (inactive) with NCI-H23; > 100 µM (inactive) in the assay with MDA-N; 25.8 µM (inactive) with Hs-578T. Moreover, in the assay with OVCAR-8, the GI50 is 28.9 µM (inactive).

For the molecule `CC(=O)c1c(O)cc(O)c(-c2c(C)cc(O)c3c2C(=O)c2cccc(O)c2C3=O)c1O`, the GI50 was 21 µM (inactive) with SNB-19; 14.9 µM (inactive) in the assay with HOP-62; 10.8 µM (inactive) in the assay on OVCAR-4; 15.1 µM (inactive) with SF-268; 15.8 µM (inactive) in the assay on NCI/ADR-RES; 11.6 µM (inactive) with IGROV-1. In addition, the GI50 in the assay on 786-0 is 17.1 µM (inactive); in the assay on NCI-H522, 10 µM (inactive); in the assay on NCI-H226 it was 18.3 µM (inactive); in the assay on K562, 19.4 µM (inactive); with HCT-116, 15.4 µM (inactive); in the assay on RPMI-8226, 7.76 µM (inactive). In addition, the GI50 is 15.3 µM (inactive) with SF-539; 17.5 µM (inactive) in the assay on BT-549; 16 µM (inactive) with MDA-N; 7.48 µM (inactive) with Hs-578T; 14.7 µM (inactive) with OVCAR-8.

Take `CCOc1ccc2nc3nc(O)nc(C)c3c(NCCCN(CC)CC)c2c1`: the GI50 in the assay on SNB-19, in the assay with HOP-62, in the assay on OVCAR-4, in the assay with SF-268, in the assay on NCI/ADR-RES and in the assay on SK-MEL-5 was > 100 µM (inactive) throughout. The GI50 in the assay with IGROV-1, in the assay with 786-0, with NCI-H522, with NCI-H226, in the assay on CCRF-CEM and with K562 was > 100 µM (inactive) each time. Besides, the GI50 with HCT-116, with SF-539, in the assay with BT-549, in the assay on NCI-H23, in the assay with MDA-N and in the assay on Hs-578T was > 100 µM (inactive) in each case. Also, in the assay on OVCAR-8, the GI50 is > 100 µM (inactive).

With `CCc1c(Cc2cccc3ccccc23)n2c(nc1=O)SCC2OCCO` (stereo unspecified), the GI50 is > 100 µM (inactive) with SNB-19; 41.5 µM (inactive) in the assay on OVCAR-4; 55.7 µM (inactive) in the assay with SF-268; 81.5 µM (inactive) in the assay with NCI/ADR-RES; 95.5 µM (inactive) in the assay on SK-MEL-5; 24.7 µM (inactive) in the assay with IGROV-1. In addition, the GI50 was > 100 µM (inactive) in the assay with 786-0; 49 µM (inactive) with NCI-H522; > 100 µM (inactive) with NCI-H226; 19.6 µM (inactive) in the assay on CCRF-CEM; 30.4 µM (inactive) in the assay on K562; > 100 µM (inactive) in the assay on HCT-116. In addition, the GI50 in the assay with RPMI-8226 was 25.7 µM (inactive); in the assay on SF-539, > 100 µM (inactive); with BT-549 it was 41.7 µM (inactive); with NCI-H23, 42.8 µM (inactive); in the assay with MDA-N, 40.8 µM (inactive); in the assay with Hs-578T, > 100 µM (inactive). The GI50 in the assay on OVCAR-8 is 33.1 µM (inactive).

Turning to `CS(=O)(=O)Nc1ccc2c(c1)N(S(C)(=O)=O)CC2COS(C)(=O)=O` (stereo unspecified), the GI50 in the assay on HOP-62 was 31.1 µM (inactive); with OVCAR-4, 76 µM (inactive); in the assay on SF-268, > 10 µM (inactive); with NCI/ADR-RES, > 100 µM (inactive); in the assay on SK-MEL-5 it was 18.9 µM (inactive); in the assay with IGROV-1, > 100 µM (inactive). Besides, the GI50 with 786-0 is 31 µM (inactive); with NCI-H522, 19.7 µM (inactive); in the assay on NCI-H226, > 100 µM (inactive); in the assay on CCRF-CEM it was 35.8 µM (inactive); with K562 it was 52.4 µM (inactive); in the assay on HCT-116 it was 54.6 µM (inactive). Also, the GI50 was 25.8 µM (inactive) with RPMI-8226; 41.9 µM (inactive) in the assay with SF-539; 50.4 µM (inactive) in the assay with BT-549; 45.1 µM (inactive) in the assay on NCI-H23; > 100 µM (inactive) in the assay on MDA-N; 94.2 µM (inactive) in the assay on Hs-578T. In addition, the GI50 in the assay with OVCAR-8 was 94.4 µM (inactive).

Take `C=C(c1ccccc1)C1ON(C)CCc2cc(OC)c(OC)cc21` (stereo unspecified): the GI50 with SNB-19 was > 100 µM (inactive); in the assay with HOP-62, > 100 µM (inactive); in the assay on SF-268 it was 49.2 µM (inactive); in the assay with NCI/ADR-RES, 48.4 µM (inactive); in the assay on SK-MEL-5, 23.3 µM (inactive); with IGROV-1 it was > 100 µM (inactive). Moreover, the GI50 in the assay with 786-0 was > 100 µM (inactive); with NCI-H522, 56.4 µM (inactive); with NCI-H226, > 100 µM (inactive); in the assay with CCRF-CEM it was > 100 µM (inactive); in the assay on K562, 58.7 µM (inactive); with HCT-116, 43.4 µM (inactive). Moreover, the GI50 with RPMI-8226 is > 100 µM (inactive); in the assay with SF-539, > 100 µM (inactive); with BT-549, > 100 µM (inactive); in the assay with NCI-H23 it was 66.2 µM (inactive); in the assay with MDA-N it was > 100 µM (inactive); in the assay on Hs-578T, 18.3 µM (inactive). For the same molecule, the GI50 in the assay with OVCAR-8 is > 100 µM (inactive).

Consider `CCOC(=O)/C(=C\c1ccc(CO)o1)P(=O)(OCC)OCC`, for which the GI50 in the assay with SNB-19 is 63.2 µM (inactive); in the assay with HOP-62 it was 45.8 µM (inactive); in the assay on OVCAR-4 it was 19.9 µM (inactive); in the assay on SF-268, 28.2 µM (inactive); in the assay on NCI/ADR-RES it was 22.2 µM (inactive); in the assay with SK-MEL-5, > 100 µM (inactive). For the same molecule, the GI50 is 37.2 µM (inactive) in the assay with IGROV-1; 19.7 µM (inactive) in the assay with 786-0; 3.88 µM (inactive) in the assay on NCI-H522; > 100 µM (inactive) in the assay on NCI-H226; 24.4 µM (inactive) in the assay with HCT-116; 40.7 µM (inactive) with RPMI-8226. The GI50 in the assay on SF-539 is 19.7 µM (inactive); in the assay with BT-549, 20.1 µM (inactive); in the assay on NCI-H23, 22.3 µM (inactive); in the assay with MDA-N, 22.8 µM (inactive); in the assay with Hs-578T, 36.1 µM (inactive); in the assay with OVCAR-8 it was > 10 µM (inactive).

Take `COc1ccc(CNC(=O)[C@@H]2CCCN2C(=O)[C@@H](C)N(C)C(=O)[C@H](C(C)C)N(C)C(=O)[C@@H](NC(=O)[C@H](C(C)C)N(Cc2ccccc2)Cc2ccccc2)C(C)C)c(OC)c1` (Bn2Val-V[NMeV][dNMeA]P-X32): the GI50 with SNB-19 is 3.4 µM (inactive); in the assay on HOP-62 it was 4.91 µM (inactive); with OVCAR-4 it was 3.41 µM (inactive); in the assay on SF-268 it was 3.71 µM (inactive); in the assay with NCI/ADR-RES it was 2.97 µM (inactive); with IGROV-1, 3.4 µM (inactive). The GI50 was 3.28 µM (inactive) in the assay with 786-0; 3.56 µM (inactive) in the assay on NCI-H522; 5.41 µM (inactive) in the assay on NCI-H226; 0.0706 µM (active) in the assay on K562; 3.13 µM (inactive) with HCT-116; 2.67 µM (inactive) with RPMI-8226. The GI50 with SF-539 was 2.44 µM (inactive); in the assay on BT-549, 2.56 µM (inactive); in the assay on NCI-H23, 2.94 µM (inactive); with MDA-N, 2.35 µM (inactive); in the assay on Hs-578T, 7.53 µM (inactive); with OVCAR-8 it was 6.41 µM (inactive).

With `C=C(C)[C@@H]1CC[C@]2(COC(C)=O)CC[C@]3(C)[C@H](CC[C@@H]4[C@@]5(C)CC[C@H](OC(C)=O)C(C)(C)[C@@H]5CC[C@]43C)[C@@H]12` [BETULIN DIACETATE], the GI50 with SNB-19, with HOP-62, in the assay with OVCAR-4, with NCI/ADR-RES, in the assay with SK-MEL-5 and in the assay on IGROV-1 was > 50 µM (inactive) each time. In addition, the GI50 with 786-0, in the assay on NCI-H522, in the assay with NCI-H226, with CCRF-CEM, in the assay with K562 and with HCT-116 was > 50 µM (inactive) in each case. The GI50 with RPMI-8226, in the assay with SF-539, in the assay with BT-549, with NCI-H23, in the assay with MDA-N and in the assay on Hs-578T was > 50 µM (inactive) throughout. In addition, the GI50 with OVCAR-8 was > 50 µM (inactive).
